In the OligoGym collection:
HELM strings list units from the 5' end as sugar, base in round brackets, then linkage (d deoxyribose, r ribose, m 2'-O-methyl, p phosphodiester). Strings are as the collection lists them; they lack the last nucleoside at the 3' end of the tested compound. [moe] = 2'-O-(2-methoxyethyl) (MOE); [sp] = phosphorothioate linkage; [m5C] = 5-methylcytosine

Each substance was assayed against ATXN2 (assay: mouse, dose not given). Details: ASO.

| Substance | 3 h FOB score |
| --- | --- |
| RNA1{[moe](A)[sp].[moe]([m5C])p.[moe](T)p.[moe](T)p.[moe](T)p.[moe](T)p.d([m5C])[sp].d(T)[sp].d([m5C])[sp].d(A)[sp].d(T)[sp].d(G)[sp].d(T)[sp].d(G)[sp].d([m5C])[sp].d(G)[sp].[moe](G)p.[moe]([m5C])[sp].[moe](A)}$$$$ (last 3' nucleoside missing) | 6.5 score 0-7 |
| RNA1{[moe](G)[sp].[moe]([m5C])p.[moe](A)p.[moe](A)p.[moe](A)p.d(G)[sp].d(A)[sp].d([m5C])[sp].d(T)[sp].d(T)[sp].d(T)[sp].d(G)[sp].d(A)[sp].d(A)[sp].d(A)[sp].[moe](T)p.[moe]([m5C])p.[moe](T)[sp].[moe]([m5C])}$$$$ (last 3' nucleoside missing) | 0 score 0-7 |
| RNA1{[moe](G)[sp].[moe]([m5C])p.[moe](T)p.[moe](T)p.d(A)[sp].d(G)[sp].d(A)[sp].d(G)[sp].d(T)[sp].d(T)[sp].d(T)[sp].d(T)[sp].d(T)[sp].d(G)[sp].[moe]([m5C])p.[moe]([m5C])p.[moe](T)p.[moe](T)[sp].[moe]([m5C])}$$$$ (last 3' nucleoside missing) | 4 score 0-7 |
| RNA1{[moe](T)[sp].[moe]([m5C])p.[moe](A)p.[moe](G)p.[moe](A)p.d([m5C])[sp].d(T)[sp].d(T)[sp].d([m5C])[sp].d(T)[sp].d(T)[sp].d(G)[sp].d(T)[sp].d(T)[sp].d(G)[sp].[moe](T)p.[moe](T)p.[moe](G)[sp].[moe](T)}$$$$ (last 3' nucleoside missing) | 2 score 0-7 |
| RNA1{[moe](G)[sp].[moe](G)p.[moe]([m5C])p.[moe](T)p.[moe](G)p.d(G)[sp].d(A)[sp].d(A)[sp].d(G)[sp].d(T)[sp].d([m5C])[sp].d(T)[sp].d(G)[sp].d(A)[sp].d(A)[sp].[moe]([m5C])p.[moe]([m5C])p.[moe]([m5C])[sp].[moe]([m5C])}$$$$ (last 3' nucleoside missing) | 6 score 0-7 |
| RNA1{[moe]([m5C])[sp].[moe](T)p.[moe]([m5C])p.[moe]([m5C])p.[moe](T)[sp].d(A)[sp].d(T)[sp].d([m5C])[sp].d(A)[sp].d(T)[sp].d([m5C])[sp].d(A)[sp].d(T)[sp].[moe](T)p.[moe](T)p.[moe](T)[sp].[moe]([m5C])}$$$$ (last 3' nucleoside missing) | 0 score 0-7 |
| RNA1{[moe](G)[sp].[moe](T)p.[moe](G)p.[moe](A)p.d(T)[sp].d(G)[sp].d(T)[sp].d(T)[sp].d(T)[sp].d([m5C])[sp].d(A)[sp].d(T)[sp].d(T)[sp].d(G)[sp].[moe](G)p.[moe](G)p.[moe](T)p.[moe](T)[sp].[moe](T)}$$$$ (last 3' nucleoside missing) | 6 score 0-7 |
| RNA1{[moe](A)[sp].[moe](T)p.[moe](G)p.[moe]([m5C])p.[moe](A)p.d(G)[sp].d(T)[sp].d(A)[sp].d([m5C])[sp].d(A)[sp].d(A)[sp].d([m5C])[sp].d(A)[sp].d(T)[sp].d(T)[sp].[moe]([m5C])p.[moe]([m5C])p.[moe](A)[sp].[moe](T)}$$$$ (last 3' nucleoside missing) | 0 score 0-7 |
| RNA1{[moe](T)[sp].[moe](G)p.[moe](T)p.[moe](T)p.[moe](G)p.d(T)[sp].d(T)[sp].d(G)[sp].d(T)[sp].d(T)[sp].d(T)[sp].d(A)[sp].d([m5C])[sp].d(A)[sp].d(T)[sp].[moe](T)p.[moe](A)p.[moe](T)[sp].[moe](T)}$$$$ (last 3' nucleoside missing) | 0 score 0-7 |
| RNA1{[moe](G)[sp].[moe](T)p.[moe](T)p.[moe](T)p.[moe](G)p.d(G)[sp].d(A)[sp].d(A)[sp].d(T)[sp].d([m5C])[sp].d(T)[sp].d(T)[sp].d(A)[sp].d(T)[sp].d(T)[sp].[moe](A)p.[moe](A)p.[moe](G)[sp].[moe]([m5C])}$$$$ (last 3' nucleoside missing) | 1 score 0-7 |
| RNA1{[moe]([m5C])[sp].[moe]([m5C])p.[moe](A)p.[moe](T)p.[moe](A)p.d([m5C])[sp].d(G)[sp].d([m5C])[sp].d(G)[sp].d(G)[sp].d(T)[sp].d(G)[sp].d(A)[sp].d(A)[sp].d(T)[sp].[moe](T)p.[moe]([m5C])p.[moe](T)[sp].[moe](G)}$$$$ (last 3' nucleoside missing) | 4.5 score 0-7 |
| RNA1{[moe](T)[sp].[moe]([m5C])p.[moe](T)p.[moe]([m5C])p.[moe](T)p.d(A)[sp].d(T)[sp].d(T)[sp].d(T)[sp].d([m5C])[sp].d(T)[sp].d(T)[sp].d(T)[sp].d(G)[sp].d(T)[sp].[moe]([m5C])p.[moe]([m5C])p.[moe](A)[sp].[moe](G)}$$$$ (last 3' nucleoside missing) | 6.75 score 0-7 |
| RNA1{[moe](G)[sp].[moe]([m5C])p.[moe](A)p.[moe](T)p.[moe](G)p.d(A)[sp].d(T)[sp].d([m5C])[sp].d(T)[sp].d(T)[sp].d(G)[sp].d(T)[sp].d(G)[sp].d(T)[sp].d(A)[sp].[moe](T)p.[moe](A)p.[moe](T)[sp].[moe](A)}$$$$ (last 3' nucleoside missing) | 1 score 0-7 |
| RNA1{[moe](G)[sp].[moe](G)p.[moe](T)p.[moe](G)p.[moe](G)[sp].d(T)[sp].d(G)[sp].d(T)[sp].d(G)[sp].d([m5C])[sp].d(G)[sp].d([m5C])[sp].d(A)[sp].[moe](T)p.[moe](G)p.[moe](T)[sp].[moe](A)}$$$$ (last 3' nucleoside missing) | 7 score 0-7 |
| RNA1{[moe]([m5C])[sp].[moe](T)[sp].[moe]([m5C])[sp].[moe](T)[sp].[moe]([m5C])[sp].d([m5C])[sp].d(A)[sp].d(T)[sp].d(T)[sp].d(A)[sp].d(T)[sp].d(T)[sp].d(T)[sp].d([m5C])[sp].d(T)[sp].[moe](T)[sp].[moe]([m5C])[sp].[moe](A)[sp].[moe]([m5C])}$$$$ (last 3' nucleoside missing) | 7 score 0-7 |
| RNA1{[moe](G)[sp].[moe](A)p.[moe](T)p.[moe](T)p.[moe]([m5C])[sp].d(T)[sp].d(G)[sp].d(T)[sp].d(A)[sp].d([m5C])[sp].d(T)[sp].d(T)[sp].d(T)[sp].[moe](T)p.[moe]([m5C])p.[moe](T)[sp].[moe]([m5C])}$$$$ (last 3' nucleoside missing) | 1 score 0-7 |
| RNA1{[moe](G)[sp].[moe](T)p.[moe](A)p.[moe](T)p.[moe]([m5C])p.d(A)[sp].d(T)[sp].d(A)[sp].d(T)[sp].d(A)[sp].d(T)[sp].d(T)[sp].d(T)[sp].d([m5C])[sp].d(T)[sp].[moe]([m5C])p.[moe](A)p.[moe](G)[sp].[moe]([m5C])}$$$$ (last 3' nucleoside missing) | 2.25 score 0-7 |
| RNA1{[moe](T)[sp].[moe](T)p.[moe](A)p.[moe](G)p.[moe]([m5C])p.d(T)[sp].d([m5C])[sp].d(A)[sp].d(T)[sp].d([m5C])[sp].d(A)[sp].d(A)[sp].d(G)[sp].d(G)[sp].d(T)[sp].[moe](A)p.[moe]([m5C])p.[moe]([m5C])[sp].[moe](A)}$$$$ (last 3' nucleoside missing) | 3.75 score 0-7 |
| RNA1{[moe](T)[sp].[moe](G)p.[moe](T)p.[moe](A)p.[moe]([m5C])p.d(T)[sp].d(T)[sp].d([m5C])[sp].d(A)[sp].d(A)[sp].d(A)[sp].d(T)[sp].d(T)[sp].d(T)[sp].d(T)[sp].[moe](G)p.[moe](T)p.[moe](T)[sp].[moe](T)}$$$$ (last 3' nucleoside missing) | 0 score 0-7 |
| RNA1{[moe]([m5C])[sp].[moe](T)p.[moe](G)p.[moe](T)p.[moe](G)p.d(A)[sp].d(G)[sp].d(T)[sp].d(T)[sp].d([m5C])[sp].d(A)[sp].d([m5C])[sp].d([m5C])[sp].d(T)[sp].d(G)[sp].[moe]([m5C])p.[moe](A)p.[moe](T)[sp].[moe]([m5C])}$$$$ (last 3' nucleoside missing) | 1 score 0-7 |
| RNA1{[moe](A)[sp].[moe](G)p.[moe]([m5C])p.[moe](A)p.[moe]([m5C])p.d(A)[sp].d(T)[sp].d(G)[sp].d(A)[sp].d(T)[sp].d(T)[sp].d(G)[sp].d(T)[sp].d(A)[sp].d(A)[sp].[moe](A)p.[moe]([m5C])p.[moe](T)[sp].[moe](A)}$$$$ (last 3' nucleoside missing) | 6 score 0-7 |
| RNA1{[moe](T)[sp].[moe]([m5C])p.[moe]([m5C])p.[moe](A)p.[moe](A)p.d(T)[sp].d(T)[sp].d(T)[sp].d([m5C])[sp].d(A)[sp].d(G)[sp].d(A)[sp].d([m5C])[sp].d(T)[sp].d(T)[sp].[moe]([m5C])p.[moe](T)p.[moe](T)[sp].[moe](G)}$$$$ (last 3' nucleoside missing) | 2 score 0-7 |
| RNA1{[moe](G)[sp].[moe](T)p.[moe](T)p.[moe](A)p.[moe]([m5C])p.d(T)[sp].d(G)[sp].d(T)[sp].d(T)[sp].d(T)[sp].d([m5C])[sp].d(G)[sp].d(A)[sp].d([m5C])[sp].d([m5C])[sp].[moe](T)p.[moe]([m5C])p.[moe](T)[sp].[moe](G)}$$$$ (last 3' nucleoside missing) | 6.5 score 0-7 |
| RNA1{[moe](G)[sp].[moe](A)p.[moe](T)p.[moe](G)p.[moe](T)p.d(T)[sp].d(T)[sp].d([m5C])[sp].d(A)[sp].d(T)[sp].d(T)[sp].d(G)[sp].d(G)[sp].d(G)[sp].d(T)[sp].[moe](T)p.[moe](T)p.[moe](A)[sp].[moe](A)}$$$$ (last 3' nucleoside missing) | 6.25 score 0-7 |
| RNA1{[moe](A)[sp].[moe]([m5C])p.[moe](T)p.[moe](T)p.[moe]([m5C])p.d(A)[sp].d([m5C])[sp].d(A)[sp].d(T)[sp].d(T)[sp].d(T)[sp].d(G)[sp].d(G)[sp].d(A)[sp].d(G)[sp].[moe]([m5C])p.[moe]([m5C])p.[moe]([m5C])[sp].[moe](T)}$$$$ (last 3' nucleoside missing) | 5.75 score 0-7 |
| RNA1{[moe](A)[sp].[moe](A)p.[moe](T)p.[moe](A)p.[moe](G)p.d(G)[sp].d(G)[sp].d(T)[sp].d(T)[sp].d(T)[sp].d(T)[sp].d(G)[sp].d(T)[sp].d(T)[sp].d([m5C])[sp].[moe](A)p.[moe](T)p.[moe](G)[sp].[moe]([m5C])}$$$$ (last 3' nucleoside missing) | 3.75 score 0-7 |
